# Tested on: HeLa cell
# Experiment: Cell penetration of pep(CPP)-FITC conjugates in HeLa cell line, flow cytometry (FACS)
# Format: cell-based, Homo sapiens
# Settings: HeLa cells, 20 μM of each carrier peptide combined with FITC, 37° C. for an hour, control cells treated only FITC
# Description: Homo sapiens cervix adenocarcinoma cell line as HeLa cell lines were purchased from ATCC (American Type Cell Culture). The cells were cultured in MEM supplemented with 10% fetal bovine serum (Invitrogen, USA), Earle's salts, non-essential amino acids, sodium pyruvate and 100 μg/ml penicillin and 10 units/ml streptomycin and cultured at 37° C., 5% CO2 incubator.
# Flow cytometry and Confocal microscope analysis were performed to compare the between degree of cellular uptake of the cells were treated with SEQ ID NO: 1 to SEQ ID NO: 156, pep (CPP) and control.
# The cell line was divided in a 6-well plate and cultured in a medium containing 10% fetal bovine serum (Invitrogen, USA), […] at 37° C., 5% CO2 incubator for 12 hours. After washing the cell line with PBS, starvation was induced in a Minimum Essential Medium for an hour. 20 μM of each carrier peptide was treated and cultured at 37° C. for an hour. After repeating the step of washing the cells with PBS for three times, Trypsin-EDTA was treated form 10 mins at 37° C. to separate the carrier peptide on the outside of the cell. cells were collected with refrigerated PBS and centrifugation was performed to repeat the step of washing the cells for three times. After then, the cells were suspended in 0.5 ml of PBS containing 4% Paraformaldehyde and fluorescence of the cells was analyzed using FACS Calibur (Becton Dickinson). The cellular uptake aspect of control and various peptides combined with FITC was compared and analyzed by MFI (Mean Fluorescence Intensity).
# Analysis results shown in FIG. 1 to FIG. 23 are given in detail in Table 3 below.
row,Sequence,"cellular uptake, MFI (Mean Fluorescence Intensity)"
1,RPALLTSRLRFIPKP (listed as Homo sapiens) [pep41],28.97 ± 3.44
2,RPGLLGASVL (listed as Homo sapiens) [pep21],13.22 ± 1.67
3,RPIVNMDYVVGARTFRREKR (listed as Homo sapiens) [pep139],29.95 ± 0.28
4,RPSLTGARRLVETIFLGSRP (listed as Homo sapiens) [pep125],28.62 ± 2.12
5,RQHHAGPPSTSRPPRPWDTP (listed as Homo sapiens) [pep65],12.72 ± 1.36
6,RRPGLLGAS (listed as Homo sapiens) [pep28],14.08 ± 3.11
7,RRPGLLGASVLGLDDIHRAW (listed as Homo sapiens) [pep141],20.89 ± 0.31
8,RRSPGVGCVPAAEHRLREEI (listed as Homo sapiens) [pep76],13.98 ± 0.11
9,RSLLRSHYREVLPLATFVRR (listed as Homo sapiens) [pep108],22.53 ± 0.95
10,RTFRREKRAERLTSR (listed as Homo sapiens) [pep43],29.88 ± 2.35
11,RTFVLRVRAQDPPPE (listed as Homo sapiens) [pep8],17.75 ± 1.96
12,RTRGPSDRGFCVVSPARPAE (listed as Homo sapiens) [pep63],21.3 ± 1.55
13,SGPRRRLGCERAWNHSVREA (listed as Homo sapiens) [pep117],23.11 ± 2.46
14,SHVSTLTDLQPYMRQFVAHL (listed as Homo sapiens) [pep88],16.43 ± 0.55
15,SLCYSILKAKNAGMSLGAKG (listed as Homo sapiens) [pep102],45.84 ± 1.58
16,SLPLPKRPRRGAAPEPERTP (listed as Homo sapiens) [pep119],13.23 ± 0.64
17,SRPPRPWDTPCPPVYAETKH (listed as Homo sapiens) [pep123],18.03 ± 2.83
18,SVLGLDDIH (listed as Homo sapiens) [pep31],14.93 ± 2.05
19,SVLGLDDIHR (listed as Homo sapiens) [pep17],15.26 ± 2.23
20,SVLNYERAR (listed as Homo sapiens) [pep24],13.78 ± 1.07

row,Sequence,"cellular uptake, MFI (Mean Fluorescence Intensity)"
1,SVLNYERARR (listed as Homo sapiens) [pep16],20.12 ± 1.84
2,SVLNYERARRPGLLG (listed as Homo sapiens) [pep3],18.23 ± 3.21
3,SYLPNTVTDALRGSGAWGLL (listed as Homo sapiens) [pep56],28.61 ± 0.44
4,THCPLRAAVTPAAGVCAREK (listed as Homo sapiens) [pep128],14.36 ± 1.21
5,TKKFISLGKHAKLSLQELTW (listed as Homo sapiens) [pep132],26.39 ± 0.95
6,TQLSRKLPGTTLTALEAAAN (listed as Homo sapiens) [pep105],13.23 ± 2.21
7,VAQCLVCVPWDARPPPAAPS (listed as Homo sapiens) [pep110],22.04 ± 0.77
8,VARVLQRLCERGAKNVLAFG (listed as Homo sapiens) [pep54],388.45 ± 2.94
9,VETIFLGSRPWMPGTPRRLP (listed as Homo sapiens) [pep68],27.28 ± 1.28
10,VLGLDDIHR (listed as Homo sapiens) [pep23],15.68 ± 2.03
11,VLGLDDIHRA (listed as Homo sapiens) [pep13],14.01 ± 1.32
12,VLNYERARR (listed as Homo sapiens) [pep25],18.62 ± 0.69
13,VLPLATFVRRLGPQGWRLVQ (listed as Homo sapiens) [pep51],59.81 ± 1.38
14,VRRYAVVQKAAHGEVRKAFK (VRRYAVVQKAAHGHVRKAFK; listed as Homo sapiens) [pep87],38.35 ± 2.27
15,VTETTFQKNRLFFYR (listed as Homo sapiens) [pep37],20.81 ± 1.02
16,WMPGTPRRLPRLPQRYWQMR (listed as Homo sapiens) [pep126],3362.29 ± 3.24
17,WSKLQSIGIRQHLKRVQLRE (listed as Homo sapiens) [pep79],31.2 ± 1.52
18,YERARRPGL (listed as Homo sapiens) [pep11],10.46 ± 1.99
19,YERARRPGLL (listed as Homo sapiens) [pep20],20.73 ± 2.45

# Source: patent US11773381B2, “Cell penetrating peptide, conjugate comprising same, and composition comprising conjugate” (GemVax & KAEL CO., LTD., priority 2012, dated 2023)
